# Data as given in PubChem BioAssay (NCI).
#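 In this assay, cells in 96-well plates receive the compound at five concentrations for 48 hours. Endpoints are linearly interpolated between the surrounding concentrations. The concentration for 50% growth inhibition is given as GI50. TGI is the concentration that stops growth completely.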
# What was measured:
# Assay in all cases: NCI anticancer screen, dose series, 48 h
# HOP-62 NSCLC = test system: HOP-62 NSCLC
# HOP-92 NSCLC = test system: HOP-92 NSCLC
# NCI-H226 lung = test system: NCI-H226 lung
# K-562 leukemia = test system: K-562 leukemia
# OVCAR-5 ovarian = test system: OVCAR-5 ovarian
# HT29 colon = test system: HT29 colon
# SK-OV-3 ovarian = test system: SK-OV-3 ovarian
# ACHN renal = test system: ACHN renal
# T-47D breast = test system: T-47D breast
# DU-145 prostate = test system: DU-145 prostate
Compound,TGI (HOP-62 NSCLC),TGI (HOP-92 NSCLC),TGI (NCI-H226 lung),TGI (K-562 leukemia),TGI (OVCAR-5 ovarian),TGI (HT29 colon),TGI (SK-OV-3 ovarian),TGI (ACHN renal),GI50 (HOP-62 NSCLC),GI50 (HOP-92 NSCLC),GI50 (NCI-H226 lung),GI50 (K-562 leukemia),GI50 (OVCAR-5 ovarian),GI50 (T-47D breast),TGI (T-47D breast),GI50 (ACHN renal),GI50 (SK-OV-3 ovarian),GI50 (DU-145 prostate),TGI (DU-145 prostate),GI50 (HT29 colon)
CN(C)CCNc1nc(-c2cccs2)cc(-c2cccs2)n1,40.7 µM,8.7 µM,30.5 µM,36.5 µM,23.9 µM,22.2 µM,,,,,,,,,,,,,,
Nc1ccc(C(=O)N/C(=C\c2cccc([N+](=O)[O-])c2)c2nc3c4c(ccc3[nH]2)C(=O)c2ccccc2C4=O)cc1,> 100 µM,93.4 µM,,> 100 µM,> 100 µM,> 100 µM,> 100 µM,,,,,,,,,,,,,
C#CCN(C)C(=O)N(CC#C)N=O,> 100 µM,> 100 µM,,> 100 µM,> 100 µM,> 100 µM,> 100 µM,> 100 µM,,,,,,,,,,,,
c1ccc2nc(OCCN3CC3)ccc2c1,34.1 µM,9.44 µM,38.6 µM,24 µM,31.5 µM,,33.6 µM,35.9 µM,15.2 µM,1.9 µM,16.6 µM,3.06 µM,17.1 µM,12.4 µM,30.6 µM,15 µM,16.8 µM,14.8 µM,28 µM,
COc1ccc2c(c1)OCCC1=C2SCC2(C)CCN=C12 (stereo not given),> 100 µM,,> 100 µM,> 100 µM,,> 100 µM,> 100 µM,,,,,,,,,,,,,
Cc1cc(O)c(C(c2ccncc2)c2c(O)cc(C)[nH]c2=O)c(=O)[nH]1,> 100 µM,,,> 100 µM,> 100 µM,> 100 µM,> 100 µM,> 100 µM,,,,,,,> 100 µM,,,,> 100 µM,
N#Cc1cccc(OCc2ccccc2COc2cccc(C#N)c2)c1,,15.4 µM,88.1 µM,> 100 µM,> 100 µM,> 100 µM,> 100 µM,86.3 µM,,2.36 µM,29.1 µM,64.5 µM,87 µM,55.6 µM,> 100 µM,27.2 µM,35.7 µM,25.9 µM,99.1 µM,> 100 µM
COc1ccc2nc3cccc(C(=O)NCCN(C)C)c3nc2c1,3.76 µM,> 100 µM,3.85 µM,6.94 µM,6.17 µM,6.63 µM,> 28 µM,6.78 µM,,,,,,,,,,,,
Cc1cc(O)cc2c1c(=O)c1ccccc1n2C,,93.6 µM,> 100 µM,,> 100 µM,> 100 µM,> 100 µM,> 100 µM,,,,,,,> 100 µM,,,,> 100 µM,
COc1cc(/C=N\O)nc(-c2ccccn2)c1,,> 100 µM,,> 100 µM,> 100 µM,> 100 µM,> 100 µM,> 100 µM,,,,,,,> 100 µM,,,,> 100 µM,
COc1ccc(C(=O)O/N=C2/CCC/C2=C\c2ccccc2)cc1,> 100 µM,> 100 µM,> 100 µM,> 100 µM,> 100 µM,> 100 µM,> 100 µM,> 100 µM,,,,,,,,,,,,
Nc1c(-c2nc3ccccc3[nH]2)sc(=S)n1-c1ccc(Cl)cc1,47.3 µM,,52.2 µM,> 100 µM,> 100 µM,42.6 µM,56.9 µM,43 µM,,,,,,,,,,,,
Cn1cc(NC(=O)c2cc(NC(=O)CCCCCCC(=O)Nc3cc(C(=O)Nc4cc(C(=O)NCCC(=N)N)n(C)c4)n(C)c3)cn2C)cc1C(=O)NCCC(=N)N,,> 100 µM,,> 100 µM,> 100 µM,> 100 µM,> 100 µM,54 µM,,,,,,,,,,,,
CO[C@H](C(=O)O)[C@@H]1Cc2cc3cc(OC4CC(OC5CC(O)C(O)C(C)O5)C(O)C(C)O4)c(C)c(O)c3c(O)c2C(=O)[C@H]1OC1CC(OC2CC(OC3CC(C)(O)C(O)C(C)O3)C(O)C(C)O2)C(O)C(C)O1 (stereo not given in full),> 32.5 µM,22.6 µM,0.892 µM,> 32.5 µM,> 32.5 µM,> 32.5 µM,> 32.5 µM,,0.211 µM,0.0736 µM,0.126 µM,0.303 µM,0.375 µM,0.302 µM,> 32.5 µM,,0.445 µM,0.364 µM,> 32.5 µM,0.305 µM
NCP(=O)(O)OCC(=O)O,> 100 µM,> 100 µM,,> 100 µM,> 100 µM,> 100 µM,> 100 µM,> 100 µM,,,,,,,,,,,,
Nc1nc(N)c(-c2ccccc2)c(CCC(=O)Nc2ccc(Cl)cc2)n1,> 100 µM,> 100 µM,> 100 µM,> 100 µM,> 100 µM,> 100 µM,> 100 µM,> 100 µM,,,,,,,,,,,,
CCOC(=S)SCN1C(=O)c2ccccc2S1(=O)=O,65.8 µM,,80.9 µM,> 100 µM,29.9 µM,45.9 µM,> 100 µM,30.5 µM,24.6 µM,,29.2 µM,35.7 µM,14.5 µM,24.2 µM,80.5 µM,16.8 µM,32.1 µM,16.5 µM,34.2 µM,14 µM
CCOC(=O)/N=c1/nc(N(C)C)ss1,> 100 µM,> 100 µM,> 100 µM,> 100 µM,> 100 µM,> 100 µM,> 100 µM,> 100 µM,,,,,,,,,,,,
Cc1ccc(S(=O)OC23CC4CC(CC(C4)C2)C3)cc1 (stereo not given),> 100 µM,> 100 µM,> 100 µM,> 100 µM,> 100 µM,> 100 µM,> 100 µM,> 100 µM,,,,,,,,,,,,
C[n+]1c(N)n(C(=O)OCc2ccccc2)c(=O)c2c1ncn2C(=O)OCc1ccccc1,> 100 µM,,59.8 µM,> 100 µM,> 100 µM,> 100 µM,> 100 µM,> 100 µM,,,,,,,,,,,,
N#C/C(=C\c1ccccc1Br)C(=O)c1ccccc1,> 100 µM,> 100 µM,> 78.2 µM,> 42.6 µM,99.1 µM,> 100 µM,> 100 µM,> 89.6 µM,,,,,,,,,,,,
Cn1ccnc1C[N-]Cc1nccn1C.O=[N+]([O-])[O-].O=[N+]([O-])[O-].[Cu+2],> 100 µM,,> 100 µM,> 100 µM,,> 100 µM,> 100 µM,,> 100 µM,,> 100 µM,> 100 µM,,,,,> 100 µM,,,> 100 µM
